Results taken from PubChem BioAssay (NCI).
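All cell lines were grown in 96-well plates and treated with compound for 48 hours. GI50: concentration for 50% inhibition of growth. TGI marks complete inhibition of growth.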

Tests used:
Experiment in all cases: NCI anticancer screen, dose series, 48 h
786-0 renal = test system: 786-0 renal
A498 renal = test system: A498 renal
A549 NSCLC = test system: A549 NSCLC
ACHN renal = test system: ACHN renal
BT-549 breast = test system: BT-549 breast
CAKI-1 renal = test system: CAKI-1 renal
COLO 205 colon = test system: COLO 205 colon
DU-145 prostate = test system: DU-145 prostate
EKVX NSCLC = test system: EKVX NSCLC
HCC-2998 colon = test system: HCC-2998 colon
HCT-116 colon = test system: HCT-116 colon
HCT-15 colon = test system: HCT-15 colon
HL-60(TB) leukemia = test system: HL-60(TB) leukemia
HOP-62 NSCLC = test system: HOP-62 NSCLC
HOP-92 NSCLC = test system: HOP-92 NSCLC
HS 578T breast = test system: HS 578T breast
HT29 colon = test system: HT29 colon
K-562 leukemia = test system: K-562 leukemia
KM12 colon = test system: KM12 colon
LOX IMVI melanoma = test system: LOX IMVI melanoma
M14 melanoma = test system: M14 melanoma
MALME-3M melanoma = test system: MALME-3M melanoma
MCF7 breast = test system: MCF7 breast
MDA-MB-231 breast = test system: MDA-MB-231 breast
MDA-MB-435 = test system: MDA-MB-435
MOLT-4 leukemia = test system: MOLT-4 leukemia
NCI-H226 lung = test system: NCI-H226 lung
NCI-H23 lung = test system: NCI-H23 lung
NCI-H460 lung = test system: NCI-H460 lung
NCI-H522 lung = test system: NCI-H522 lung
NCI/ADR-RES ovarian = test system: NCI/ADR-RES ovarian
OVCAR-3 ovarian = test system: OVCAR-3 ovarian
OVCAR-4 ovarian = test system: OVCAR-4 ovarian
OVCAR-5 ovarian = test system: OVCAR-5 ovarian
OVCAR-8 ovarian = test system: OVCAR-8 ovarian
PC-3 prostate = test system: PC-3 prostate
RPMI-8226 leukemia = test system: RPMI-8226 leukemia
RXF 393 renal = test system: RXF 393 renal
SF-268 CNS = test system: SF-268 CNS
SF-295 CNS = test system: SF-295 CNS
SF-539 CNS = test system: SF-539 CNS
SK-MEL-2 melanoma = test system: SK-MEL-2 melanoma
SK-MEL-28 melanoma = test system: SK-MEL-28 melanoma
SK-MEL-5 melanoma = test system: SK-MEL-5 melanoma
SK-OV-3 ovarian = test system: SK-OV-3 ovarian
SN12C renal = test system: SN12C renal
SNB-19 CNS = test system: SNB-19 CNS
SNB-75 CNS = test system: SNB-75 CNS
SR leukemia = test system: SR leukemia
SW-620 colon = test system: SW-620 colon
T-47D breast = test system: T-47D breast
TK-10 renal = test system: TK-10 renal
U251 CNS = test system: U251 CNS
UACC-257 melanoma = test system: UACC-257 melanoma
UACC-62 melanoma = test system: UACC-62 melanoma
UO-31 renal = test system: UO-31 renal

SMILES: CCN(CC)CCCNCc1cc(-c2ccccc2)nc2cc(Cl)ccc12
- GI50 (786-0 renal): 2.41 µM
- TGI (786-0 renal): 8.77 µM
- GI50 (A498 renal): 2.36 µM
- TGI (A498 renal): 6.14 µM
- GI50 (A549 NSCLC): 7.02 µM
- TGI (A549 NSCLC): 21.2 µM
- GI50 (ACHN renal): 3.74 µM
- TGI (ACHN renal): 14.2 µM
- GI50 (BT-549 breast): 8.65 µM
- TGI (BT-549 breast): 21.6 µM
- GI50 (CAKI-1 renal): 2.35 µM
- TGI (CAKI-1 renal): 11.2 µM
- GI50 (COLO 205 colon): 1.74 µM
- TGI (COLO 205 colon): 3.27 µM
- GI50 (DU-145 prostate): 11.7 µM
- TGI (DU-145 prostate): 24.5 µM
- GI50 (EKVX NSCLC): 7.85 µM
- TGI (EKVX NSCLC): 24.3 µM
- GI50 (HCC-2998 colon): 1.94 µM
- TGI (HCC-2998 colon): 3.89 µM
- GI50 (HCT-116 colon): 1.46 µM
- TGI (HCT-116 colon): 4.28 µM
- GI50 (HCT-15 colon): 3.1 µM
- TGI (HCT-15 colon): 10.2 µM
- GI50 (HL-60(TB) leukemia): 1.78 µM
- TGI (HL-60(TB) leukemia): 4.19 µM
- GI50 (HOP-62 NSCLC): 5.54 µM
- TGI (HOP-62 NSCLC): 19.3 µM
- GI50 (HOP-92 NSCLC): 1.16 µM
- TGI (HOP-92 NSCLC): 5.02 µM
- GI50 (HS 578T breast): 2.01 µM
- TGI (HS 578T breast): 5.29 µM
- GI50 (HT29 colon): 2.2 µM
- TGI (HT29 colon): 5.39 µM
- GI50 (K-562 leukemia): 1.94 µM
- TGI (K-562 leukemia): 6.61 µM
- GI50 (KM12 colon): 2.09 µM
- TGI (KM12 colon): 4.82 µM
- GI50 (LOX IMVI melanoma): 1.87 µM
- TGI (LOX IMVI melanoma): 4.27 µM
- GI50 (M14 melanoma): 1.92 µM
- TGI (M14 melanoma): 3.63 µM
- GI50 (MALME-3M melanoma): 1.63 µM
- TGI (MALME-3M melanoma): 3.49 µM
- GI50 (MCF7 breast): 1.69 µM
- TGI (MCF7 breast): 4.06 µM
- GI50 (MDA-MB-231 breast): 1.45 µM
- TGI (MDA-MB-231 breast): 4.24 µM
- GI50 (MDA-MB-435): 1.84 µM
- TGI (MDA-MB-435): 3.81 µM
- GI50 (MOLT-4 leukemia): 2.12 µM
- TGI (MOLT-4 leukemia): 5.46 µM
- GI50 (NCI-H226 lung): 11.8 µM
- TGI (NCI-H226 lung): 27.3 µM
- GI50 (NCI-H23 lung): 12.5 µM
- TGI (NCI-H23 lung): 27.3 µM
- GI50 (NCI-H460 lung): 3.41 µM
- TGI (NCI-H460 lung): 11.2 µM
- GI50 (NCI-H522 lung): 4.96 µM
- TGI (NCI-H522 lung): 17.2 µM
- GI50 (NCI/ADR-RES ovarian): 5 µM
- TGI (NCI/ADR-RES ovarian): 19.7 µM
- GI50 (OVCAR-3 ovarian): 7.58 µM
- TGI (OVCAR-3 ovarian): 20.5 µM
- GI50 (OVCAR-4 ovarian): 7.1 µM
- TGI (OVCAR-4 ovarian): 20.5 µM
- GI50 (OVCAR-5 ovarian): 7.83 µM
- TGI (OVCAR-5 ovarian): 21.7 µM
- GI50 (OVCAR-8 ovarian): 5.81 µM
- TGI (OVCAR-8 ovarian): 18.8 µM
- GI50 (PC-3 prostate): 4.37 µM
- TGI (PC-3 prostate): 18.4 µM
- GI50 (RPMI-8226 leukemia): 2.46 µM
- TGI (RPMI-8226 leukemia): 5.93 µM
- GI50 (RXF 393 renal): 2.91 µM
- TGI (RXF 393 renal): 7.2 µM
- GI50 (SF-268 CNS): 3.05 µM
- TGI (SF-268 CNS): 12.9 µM
- GI50 (SF-295 CNS): 1.8 µM
- TGI (SF-295 CNS): 4.37 µM
- GI50 (SF-539 CNS): 1.02 µM
- TGI (SF-539 CNS): 2.55 µM
- GI50 (SK-MEL-2 melanoma): 2.32 µM
- TGI (SK-MEL-2 melanoma): 4.55 µM
- GI50 (SK-MEL-28 melanoma): 1.72 µM
- TGI (SK-MEL-28 melanoma): 3.11 µM
- GI50 (SK-MEL-5 melanoma): 1.57 µM
- TGI (SK-MEL-5 melanoma): 3.13 µM
- GI50 (SK-OV-3 ovarian): 11.7 µM
- TGI (SK-OV-3 ovarian): 24.1 µM
- GI50 (SN12C renal): 4.69 µM
- TGI (SN12C renal): 18.2 µM
- GI50 (SNB-19 CNS): 10.2 µM
- TGI (SNB-19 CNS): 25.6 µM
- GI50 (SNB-75 CNS): 1.57 µM
- TGI (SNB-75 CNS): 4.34 µM
- GI50 (SR leukemia): 0.716 µM
- TGI (SR leukemia): 5.38 µM
- GI50 (SW-620 colon): 1.97 µM
- TGI (SW-620 colon): 3.94 µM
- GI50 (T-47D breast): 1.7 µM
- TGI (T-47D breast): 4.73 µM
- GI50 (TK-10 renal): 3.27 µM
- TGI (TK-10 renal): 10.2 µM
- GI50 (U251 CNS): 2.39 µM
- TGI (U251 CNS): 6.67 µM
- GI50 (UACC-257 melanoma): 2.12 µM
- TGI (UACC-257 melanoma): 5.11 µM
- GI50 (UACC-62 melanoma): 1.93 µM
- TGI (UACC-62 melanoma): 3.59 µM
- GI50 (UO-31 renal): 1.78 µM
- TGI (UO-31 renal): 11.5 µM
